According to PubChem BioAssay (NCI):
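Five concentrations, 48 hours, 96-well plates. GI50 = concentration required for 50% inhibition of growth. TGI is the concentration that stops growth completely.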

Assays:
Assay in all cases: inhibition of tumour cell growth, NCI panel, 48 h
MALME-3M melanoma = system: MALME-3M melanoma
K-562 leukemia = system: K-562 leukemia
UACC-62 melanoma = system: UACC-62 melanoma
M14 melanoma = system: M14 melanoma
SF-268 CNS = system: SF-268 CNS
CCRF-CEM leukemia = system: CCRF-CEM leukemia
EKVX NSCLC = system: EKVX NSCLC
OVCAR-8 ovarian = system: OVCAR-8 ovarian
SNB-75 CNS = system: SNB-75 CNS
T-47D breast = system: T-47D breast
HL-60(TB) leukemia = system: HL-60(TB) leukemia
KM12 colon = system: KM12 colon
OVCAR-4 ovarian = system: OVCAR-4 ovarian
NCI/ADR-RES ovarian = system: NCI/ADR-RES ovarian
SR leukemia = system: SR leukemia
NCI-H23 lung = system: NCI-H23 lung
ACHN renal = system: ACHN renal
OVCAR-3 ovarian = system: OVCAR-3 ovarian
SF-539 CNS = system: SF-539 CNS
HT29 colon = system: HT29 colon
NCI-H522 lung = system: NCI-H522 lung
786-0 renal = system: 786-0 renal
SK-OV-3 ovarian = system: SK-OV-3 ovarian
HCC-2998 colon = system: HCC-2998 colon
UO-31 renal = system: UO-31 renal
UACC-257 melanoma = system: UACC-257 melanoma
A498 renal = system: A498 renal
HCT-116 colon = system: HCT-116 colon
HOP-92 NSCLC = system: HOP-92 NSCLC
SK-MEL-5 melanoma = system: SK-MEL-5 melanoma
COLO 205 colon = system: COLO 205 colon
NCI-H226 lung = system: NCI-H226 lung
SK-MEL-28 melanoma = system: SK-MEL-28 melanoma
MDA-MB-231 breast = system: MDA-MB-231 breast
PC-3 prostate = system: PC-3 prostate
SN12C renal = system: SN12C renal
IGROV1 ovarian = system: IGROV1 ovarian
DU-145 prostate = system: DU-145 prostate
SK-MEL-2 melanoma = system: SK-MEL-2 melanoma
NCI-H460 lung = system: NCI-H460 lung
LOX IMVI melanoma = system: LOX IMVI melanoma
OVCAR-5 ovarian = system: OVCAR-5 ovarian
SF-295 CNS = system: SF-295 CNS
BT-549 breast = system: BT-549 breast
MOLT-4 leukemia = system: MOLT-4 leukemia
HS 578T breast = system: HS 578T breast
HOP-62 NSCLC = system: HOP-62 NSCLC
MDA-MB-435 = system: MDA-MB-435
SW-620 colon = system: SW-620 colon
TK-10 renal = system: TK-10 renal
HCT-15 colon = system: HCT-15 colon
SNB-19 CNS = system: SNB-19 CNS
MCF7 breast = system: MCF7 breast
A549 NSCLC = system: A549 NSCLC
CAKI-1 renal = system: CAKI-1 renal

Compound: CCN(CC)c1ccc(/C=C2\SC(=O)C(Nc3nnc(-c4cccnc4SCc4ccccc4)o3)C2=O)cc1 (stereo not given)
- GI50 (MALME-3M melanoma): 4.12 µM
- TGI (MALME-3M melanoma): > 100 µM
- GI50 (K-562 leukemia): 3.24 µM
- TGI (K-562 leukemia): > 100 µM
- GI50 (UACC-62 melanoma): 4.2 µM
- TGI (UACC-62 melanoma): 27.4 µM
- GI50 (M14 melanoma): 3.24 µM
- TGI (M14 melanoma): 13.5 µM
- GI50 (SF-268 CNS): 6.8 µM
- TGI (SF-268 CNS): > 100 µM
- GI50 (CCRF-CEM leukemia): 3.37 µM
- TGI (CCRF-CEM leukemia): > 100 µM
- GI50 (EKVX NSCLC): 6.72 µM
- TGI (EKVX NSCLC): > 100 µM
- GI50 (OVCAR-8 ovarian): 4 µM
- TGI (OVCAR-8 ovarian): > 100 µM
- GI50 (SNB-75 CNS): 2560 nM
- TGI (SNB-75 CNS): 42.2 µM
- GI50 (T-47D breast): 12.8 µM
- TGI (T-47D breast): 89.7 µM
- GI50 (HL-60(TB) leukemia): 3.88 µM
- TGI (HL-60(TB) leukemia): > 100 µM
- GI50 (KM12 colon): 3.64 µM
- TGI (KM12 colon): 28.4 µM
- GI50 (OVCAR-4 ovarian): 5.19 µM
- TGI (OVCAR-4 ovarian): > 100 µM
- GI50 (NCI/ADR-RES ovarian): 3.7 µM
- TGI (NCI/ADR-RES ovarian): > 100 µM
- GI50 (SR leukemia): 3.29 µM
- TGI (SR leukemia): > 100 µM
- GI50 (NCI-H23 lung): 2580 nM
- TGI (NCI-H23 lung): 8.62 µM
- GI50 (ACHN renal): 6.78 µM
- TGI (ACHN renal): > 100 µM
- GI50 (OVCAR-3 ovarian): 2770 nM
- TGI (OVCAR-3 ovarian): 6.29 µM
- GI50 (SF-539 CNS): 3.21 µM
- TGI (SF-539 CNS): 15.5 µM
- GI50 (HT29 colon): 3.63 µM
- TGI (HT29 colon): > 100 µM
- GI50 (NCI-H522 lung): 3.15 µM
- TGI (NCI-H522 lung): 9.67 µM
- GI50 (786-0 renal): 9.51 µM
- TGI (786-0 renal): > 100 µM
- GI50 (SK-OV-3 ovarian): 3.34 µM
- TGI (SK-OV-3 ovarian): 19.9 µM
- GI50 (HCC-2998 colon): 2990 nM
- TGI (HCC-2998 colon): 10.4 µM
- GI50 (UO-31 renal): 5.42 µM
- TGI (UO-31 renal): > 100 µM
- GI50 (UACC-257 melanoma): 16.6 µM
- TGI (UACC-257 melanoma): > 100 µM
- GI50 (A498 renal): 1760 nM
- TGI (A498 renal): 8.2 µM
- GI50 (HCT-116 colon): 3.53 µM
- TGI (HCT-116 colon): > 100 µM
- GI50 (HOP-92 NSCLC): 2580 nM
- TGI (HOP-92 NSCLC): 35 µM
- GI50 (SK-MEL-5 melanoma): 3.85 µM
- TGI (SK-MEL-5 melanoma): 14.4 µM
- GI50 (COLO 205 colon): 2190 nM
- TGI (COLO 205 colon): 4.65 µM
- GI50 (NCI-H226 lung): 9.41 µM
- TGI (NCI-H226 lung): 57.6 µM
- GI50 (SK-MEL-28 melanoma): 5.29 µM
- TGI (SK-MEL-28 melanoma): 36.7 µM
- GI50 (MDA-MB-231 breast): 2340 nM
- TGI (MDA-MB-231 breast): 10.4 µM
- GI50 (PC-3 prostate): 3.34 µM
- TGI (PC-3 prostate): > 100 µM
- GI50 (SN12C renal): 4.11 µM
- TGI (SN12C renal): > 100 µM
- GI50 (IGROV1 ovarian): 10.9 µM
- TGI (IGROV1 ovarian): 56.8 µM
- GI50 (DU-145 prostate): 2760 nM
- TGI (DU-145 prostate): 6.92 µM
- GI50 (SK-MEL-2 melanoma): 10.1 µM
- TGI (SK-MEL-2 melanoma): 53.2 µM
- GI50 (NCI-H460 lung): 3.21 µM
- TGI (NCI-H460 lung): > 100 µM
- GI50 (LOX IMVI melanoma): 3.76 µM
- TGI (LOX IMVI melanoma): > 100 µM
- GI50 (OVCAR-5 ovarian): 5.1 µM
- TGI (OVCAR-5 ovarian): > 100 µM
- GI50 (SF-295 CNS): 3.2 µM
- TGI (SF-295 CNS): 85.6 µM
- GI50 (BT-549 breast): 12 µM
- TGI (BT-549 breast): 59.3 µM
- GI50 (MOLT-4 leukemia): 3.53 µM
- TGI (MOLT-4 leukemia): > 100 µM
- GI50 (HS 578T breast): 2610 nM
- TGI (HS 578T breast): 8.77 µM
- GI50 (HOP-62 NSCLC): 4.32 µM
- TGI (HOP-62 NSCLC): 24.9 µM
- GI50 (MDA-MB-435): 2180 nM
- TGI (MDA-MB-435): 5.81 µM
- GI50 (SW-620 colon): 3.94 µM
- TGI (SW-620 colon): > 100 µM
- GI50 (TK-10 renal): 22.3 µM
- TGI (TK-10 renal): > 100 µM
- GI50 (HCT-15 colon): 3.83 µM
- TGI (HCT-15 colon): > 100 µM
- GI50 (SNB-19 CNS): 6.59 µM
- TGI (SNB-19 CNS): > 100 µM
- GI50 (MCF7 breast): 3.01 µM
- TGI (MCF7 breast): > 100 µM
- GI50 (A549 NSCLC): 3.98 µM
- TGI (A549 NSCLC): > 100 µM
- GI50 (CAKI-1 renal): 4.43 µM
- TGI (CAKI-1 renal): > 100 µM
